{"source": "patent US12539333B2", "about": "“Tetracycline complexes with sustained activity” (FRAUNHOFER-GESELLSCHAFT ZUR FÖRDERUNG DER ANGEWANDTEN …, priority 2018, dated 2026)", "key": {"S. aureus ATCC 29213": {"test_system": "S. aureus ATCC 29213", "assay": "Agar disc diffusion test", "format": "cell-based, Staphylococcus aureus", "settings": "30 μg of minocycline per disc; 35° C., 18 h", "protocol": ". The procedure followed the recommendations set by EUCAST.\nTest substance was the minocycline complex containing 10 mg/ml minocycline and controls were minocycline dissolved in ethanol (10 mg/ml), and pure ethanol. Solutions were diluted 3:7 with ethanol and immediately thereafter each 10 μl were pipetted to unloaded antibiotic test discs with a diameter of 6 mm (BD, Allschwil, Switzerland), thus each discs (except for ethanol control) contained 30 μg of minocycline. Overnight culture of S. aureus ATCC 29213 was suspended to McFarland 0.5, each 100 μl was spread on Mueller-Hinton-agar plate (Oxoid, Basingstoke, GB). Following the evaporation of the solvent, the test discs were placed on the plates. After incubation at 35° C. for 18 h, the diameters of the inhibition zones were measured."}, "[1]": {"assay": "Stability in aqueous environment (HPLC)", "quoted_text": "For the stability investigations an Agilent 1200 Series system with a XTerra RP18 5 μm 3.9×150 column (Waters) was utilized. 10 μl sample volume were injected at a flowrate of 1.0 ml/min. For this method was also a gradient program applied. The mobile phase started with a composition of water/methanol (95/5+0.1% TFA) (A) and was shifted over 7 minutes to pure methanol (0.1% TFA) (B). After 3 minutes the mobile phase returned to solvent A within 1 minute. The retention time was 4.8 minutes. For the evaluation and extraction of the chromatograms, the Chem32 software was used.\nFor the stability investigation, 10 mg samples for minocycline and 20 mg for the complex were weighed into 4 ml glass vials. One of each vial was incubated in 4 ml of PBS pH 7.0 and another vial was exposed to 4 ml of an acidic solution at pH 2.3, which was adjusted with hydrochloric acid. Until the 9th day, samples were taken every day, while the removed volume was not replaced. From there on the intervals were stretched to 3 to 4 days."}, "[2]": {"test_system": "Porphyromonas gingivalis ATCC 33277", "assay": "MIC determination of eluates and calculated effective concentration of minocycline", "format": "cell-based", "settings": "for Effective concentration of minocycline, calculated based on the MIC of the eluates (dilutions): P. ging.", "description": "(§1) In order to assess the release kinetics and biological activity of the active substances, an approach was chosen taking into consideration the conditions in the oral cavity, namely the flow rate (turnover) and composition of the sulcus in the gingival crevicular fluid (as described in Goodson, J M (2003), Periodontol 2000 31:43-54; Tew, J G et al. (1985), Infect Immun 49:487-93)."}, "[3]": {"test_system": "Streptococcus gordonii ATCC 10558", "assay": "MIC determination of eluates and calculated effective concentration of minocycline", "format": "cell-based", "settings": "for Effective concentration of minocycline, calculated based on the MIC of the eluates (dilutions): S. gord.", "description": "as §1"}}, "note": "“Also recorded” adds a separate entry of the source.", "data": [{"molecule": "1:2 Complex of Minocycline (Free Base) and Magnesium Stearate [Example 1]", "values": [{"measurement": "diameter of the inhibition zone", "setting": "S. aureus ATCC 29213", "value": 24, "unit": "mm"}, {"measurement": "time after which the minocycline peak is still visible", "setting": "[1]; PBS pH 7.0, 37° C.", "value": "≥ 3", "unit": "weeks"}, {"measurement": "decay in aqueous environment", "setting": "[1]; neutral conditions, 37° C.", "value": "much slower"}]}, {"molecule": "CN(C)c1ccc(O)c2c1C[C@H]1C[C@H]3[C@H](N(C)C)C(O)=C(C(N)=O)C(=O)[C@@]3(O)C(O)=C1C2=O", "note": "[Minocycline, (4S,4aS,5aR,12aR)-4,7-bis(dimethylamino)-1,10,11,12a-tetrahydroxy-3,12-dioxo-4a,5,5a,6-tetrahydro-4H-tetracene-2-carboxamide]", "values": [{"measurement": "MIC", "setting": "[2]; Porphyromonas gingivalis, ATCC33277, P. gingivalis ATCC 33277", "value": 0.25, "unit": "µg/mL"}, {"measurement": "Effective concentration of minocycline, calculated based on the MIC of the eluates (dilutions)", "setting": "[2]; eluate 1 h", "value": ">32000"}, {"measurement": "Effective concentration of minocycline, calculated based on the MIC of the eluates (dilutions)", "setting": "[2]; eluate 2 h", "value": 2000}, {"measurement": "Effective concentration of minocycline, calculated based on the MIC of the eluates (dilutions)", "setting": "[2]; eluate 4 h", "value": 1000}, {"measurement": "Effective concentration of minocycline, calculated based on the MIC of the eluates (dilutions)", "setting": "[2]; eluate 24 h", "value": 500}, {"measurement": "Effective concentration of minocycline, calculated based on the MIC of the eluates (dilutions)", "setting": "[2]; eluate 2 d", "value": 62.5}, {"measurement": "Effective concentration of minocycline, calculated based on the MIC of the eluates (dilutions)", "setting": "[2]; eluate 7 d", "value": 62.5}, {"measurement": "Effective concentration of minocycline, calculated based on the MIC of the eluates (dilutions)", "setting": "[2]; eluate 14 d", "value": 4}, {"measurement": "Effective concentration of minocycline, calculated based on the MIC of the eluates (dilutions)", "setting": "[2]; eluate 21 d", "value": "<1"}, {"measurement": "Effective concentration of minocycline, calculated based on the MIC of the eluates (dilutions)", "setting": "[2]; eluate 28 d", "value": "<1"}, {"measurement": "Effective concentration of minocycline, calculated based on the MIC of the eluates (dilutions)", "setting": "[2]; eluate 35 d", "value": "<1"}, {"measurement": "Effective concentration of minocycline, calculated based on the MIC of the eluates (dilutions)", "setting": "[2]; eluate 42 d", "value": "<1"}, {"measurement": "MIC", "setting": "[3]; Streptococcus gordonii, ATCC10558, S. gordonii ATCC 10558", "value": 0.5, "unit": "µg/mL"}, {"measurement": "Effective concentration of minocycline, calculated based on the MIC of the eluates (dilutions)", "setting": "[3]; eluate 1 h", "value": ">16000"}, {"measurement": "Effective concentration of minocycline, calculated based on the MIC of the eluates (dilutions)", "setting": "[3]; eluate 2 h", "value": 8000}, {"measurement": "Effective concentration of minocycline, calculated based on the MIC of the eluates (dilutions)", "setting": "[3]; eluate 4 h", "value": 2000}, {"measurement": "Effective concentration of minocycline, calculated based on the MIC of the eluates (dilutions)", "setting": "[3]; eluate 24 h", "value": 250}, {"measurement": "Effective concentration of minocycline, calculated based on the MIC of the eluates (dilutions)", "setting": "[3]; eluate 2 d", "value": 62.5}, {"measurement": "Effective concentration of minocycline, calculated based on the MIC of the eluates (dilutions)", "setting": "[3]; eluate 7 d", "value": 4}, {"measurement": "Effective concentration of minocycline, calculated based on the MIC of the eluates (dilutions)", "setting": "[3]; eluate 14 d", "value": "<2"}, {"measurement": "Effective concentration of minocycline, calculated based on the MIC of the eluates (dilutions)", "setting": "[3]; eluate 21 d", "value": "<2"}, {"measurement": "Effective concentration of minocycline, calculated based on the MIC of the eluates (dilutions)", "setting": "[3]; eluate 28 d", "value": "<2"}, {"measurement": "Effective concentration of minocycline, calculated based on the MIC of the eluates (dilutions)", "setting": "[3]; eluate 35 d", "value": "<2"}, {"measurement": "Effective concentration of minocycline, calculated based on the MIC of the eluates (dilutions)", "setting": "[3]; eluate 42 d", "value": "<2"}, {"measurement": "diameter of the inhibition zone", "setting": "S. aureus ATCC 29213", "value": 26, "unit": "mm"}, {"measurement": "time within which the minocycline peak vanishes", "setting": "[1]; PBS pH 7.0, 37° C.", "value": "≤ 3", "unit": "days"}, {"measurement": "decay in aqueous environment", "setting": "[1]; acidic conditions pH 2.3, 37° C.", "value": "decomposition process is slower; also recorded: more moderate decay"}, {"measurement": "time to complete decomposition", "setting": "[1]; buffer (PBS) pH 7.1, 37° C.", "value": 3, "unit": "days"}]}]}
